The supplement of paper PMC10307832

What was measured:
Test in all cases: relative viability (nuclei count vs DMSO), 5 days (fraction); higher = more cells survive
[1] = compound: Cc1ccc2nc(NCCN)c3ncc(C)n3c2c1 + CC(=O)c1c(C)c2cnc(Nc3ccc(N4CCNCC4)cn3)nc2n(C2CCCC2)c1=O [Palbociclib] (partner 0.5 µM)
Summary of the method: (§1)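 Dosing by pin tool came one day after lung cancer cell lines were seeded in 1536-well plates, using either one drug or a fixed anchor-drug dose plus five library-drug doses (not always all listed) in √10 steps. After 5 days, nuclei were counted on 4× images. Relative viability is treated-well nuclei count divided by vehicle-well nuclei count, and values are medians of duplicate plates.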

[2] = compound: Cc1ccc2nc(NCCN)c3ncc(C)n3c2c1 + C[C@@H](Oc1cc(-c2cnn(C3CCNCC3)c2)cnc1N)c1c(Cl)ccc(F)c1Cl [Crizotinib] (partner 1 µM)
Summary of the method: as §1

Salubrinal + Bortezomib = compound: O=C(/C=C/c1ccccc1)NC(NC(=S)Nc1cccc2cccnc12)C(Cl)(Cl)Cl [Salubrinal] + CC(C)C[C@H](NC(=O)[C@H](Cc1ccccc1)NC(=O)c1cnccn1)B(O)O [Bortezomib] (partner 0.002 µM)
Summary of the method: as §1

Salubrinal + Vorinostat = compound: O=C(/C=C/c1ccccc1)NC(NC(=S)Nc1cccc2cccnc12)C(Cl)(Cl)Cl [Salubrinal] + O=C(CCCCCCC(=O)Nc1ccccc1)NO [Vorinostat] (partner 1 µM)
Summary of the method: as §1

Row | Cell Line | relative viability ([1]; first compound 0.04 µM) | relative viability ([1]; first compound 0.1265 µM) | relative viability ([1]; first compound 0.4 µM) | relative viability ([1]; first compound 1.265 µM) | relative viability ([1]; first compound 4 µM) | relative viability ([2]; first compound 0.04 µM) | relative viability ([2]; first compound 0.1265 µM) | relative viability ([2]; first compound 0.4 µM) | relative viability ([2]; first compound 1.265 µM) | relative viability ([2]; first compound 4 µM) | relative viability (Salubrinal + Bortezomib; first compound 0.08 µM) | relative viability (Salubrinal + Bortezomib; first compound 0.253 µM) | relative viability (Salubrinal + Bortezomib; first compound 0.8 µM) | relative viability (Salubrinal + Bortezomib; first compound 2.53 µM) | relative viability (Salubrinal + Bortezomib; first compound 8 µM) | relative viability (Salubrinal + Vorinostat; first compound 0.08 µM) | relative viability (Salubrinal + Vorinostat; first compound 0.253 µM) | relative viability (Salubrinal + Vorinostat; first compound 0.8 µM) | relative viability (Salubrinal + Vorinostat; first compound 2.53 µM) | relative viability (Salubrinal + Vorinostat; first compound 8 µM)
1 | 201T | 0.396 | 0.367 | 0.33 | 0.363 | 0.323 | 1.07 | 1.06 | 1.07 | 1.09 | 1.06 | 1.14 | 1.06 | 1.14 | 1.09 | 1.11 | 1.08 | 0.922 | 1.03 | 1.03 | 0.933
2 | A549 | – | – | – | – | – | 0.826 | 0.744 | 0.753 | 0.547 | 0.485 | – | – | – | – | – | – | – | – | – | –
3 | A-427 | 0.531 | 0.485 | 0.496 | 0.506 | 0.555 | 1.01 | 1.01 | 0.835 | 0.966 | 0.942 | 0.96 | 0.908 | 1.12 | 0.961 | 1.06 | 0.859 | 0.905 | 0.896 | 0.814 | 0.827
4 | ABC-1 | 0.785 | 0.792 | 0.887 | 0.649 | 0.538 | 1.09 | 1.04 | 1.23 | 0.988 | 0.68 | 0.322 | 0.35 | 0.363 | 0.303 | 0.281 | 1.14 | 0.947 | 0.971 | 1.34 | 1.11
5 | BEN | 0.506 | 0.484 | 0.479 | 0.465 | 0.48 | 0.944 | 0.59 | 0.872 | 0.798 | 0.842 | 0.716 | 0.721 | 0.979 | 0.941 | 0.909 | 0.52 | 0.543 | 0.645 | 0.507 | 0.571
6 | CAL-12T | 0.499 | 0.47 | 0.39 | 0.376 | 0.48 | 0.787 | 0.716 | 0.725 | 0.603 | 0.344 | 0.983 | 0.899 | 1.54 | 0.915 | 0.998 | 0.903 | 0.676 | 0.989 | 0.681 | 0.672
7 | COR-L23 | 0.383 | 0.301 | 0.323 | 0.318 | 0.323 | 0.737 | 0.608 | 0.628 | 0.572 | 0.541 | 1.16 | 0.786 | 1.12 | 0.998 | 0.809 | 0.471 | 0.419 | 0.534 | 0.323 | 0.356
8 | COR-L 105 | 0.374 | 0.414 | 0.43 | 0.4 | 0.438 | 0.797 | 0.721 | 0.887 | 0.704 | 0.422 | 0.756 | 0.829 | 0.86 | 0.816 | 0.604 | 1.08 | 0.816 | 0.843 | 0.797 | 0.747
9 | Calu-6 | – | – | – | – | – | 0.803 | 0.776 | 0.794 | 0.77 | 0.426 | 1.18 | 0.856 | 1.11 | 1.01 | 0.918 | – | – | – | – | –
